Experimental data as given in patent US20060122181A1, “Heteroaromatic pentacyclic compound and medicinal use thereof” (Japan Tobacco Inc., priority 2003, published 2006).

How the values were obtained:
[1] = biological target: T1, Recombinant human protein tyrosine phosphatase 1B (Homo sapiens, UniProt P18031); test: Protein tyrosine phosphatase 1B inhibitory activity (malachite green, phosphorylated insulin receptor peptide substrate); format: biochemical; conditions: recombinant human PTP1B, 60 min room temperature, absorbance 650 nm
T1 construct: purchased UBI
T1 sequence (P18031 1-435): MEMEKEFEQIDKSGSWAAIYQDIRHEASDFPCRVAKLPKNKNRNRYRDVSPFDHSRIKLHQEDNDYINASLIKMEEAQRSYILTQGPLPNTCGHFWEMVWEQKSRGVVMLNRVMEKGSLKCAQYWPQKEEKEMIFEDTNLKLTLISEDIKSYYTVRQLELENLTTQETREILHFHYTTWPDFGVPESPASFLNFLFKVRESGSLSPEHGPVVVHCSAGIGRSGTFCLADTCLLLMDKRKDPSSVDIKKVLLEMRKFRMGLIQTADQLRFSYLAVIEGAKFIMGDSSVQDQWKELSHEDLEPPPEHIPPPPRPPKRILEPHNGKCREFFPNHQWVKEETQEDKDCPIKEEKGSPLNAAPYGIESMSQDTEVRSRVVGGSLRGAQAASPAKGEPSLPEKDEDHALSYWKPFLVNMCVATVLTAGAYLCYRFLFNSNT

[2] = system: male ob/ob mice; test: Hypoglycemic activity in ob/ob mice; format: in vivo; conditions: fasting, relative to control group
Experimental: A 0.5% methyl cellulose suspension of the test compound was orally administered to 6- to 9-week-old male ob/ob mice grouped according to the glucose level. Only a 0.5% methyl cellulose solution was administered to a control group.
Blood was drawn under fasting condition, which condition was started simultaneously with the administration by means of removing the feed. The blood was drawn under anesthesia from the orbital vein 3 hours after the administration. The blood thus taken was centrifuged and the glucose level was measured from the obtained plasma by the hexokinase method (glucose measurement kit). For evaluation, the percentage (%) of decrease in the glucose level of the test compound-administered group relative to the control group is shown.

IC50 [1] [µM]	melting point [°C]	SMILES	blood glucose decreasing rate (%) 3 hours later ([2]; dose 1 mg/kg oral) [%]	blood glucose decreasing rate (%) 3 hours later ([2]; dose 3 mg/kg oral) [%]
0.2	143	CCCC(CCC)c1ccc(CN(C)c2ccc(-c3csc(CN(C)[C@@H](Cc4ccccc4)C(=O)O)n3)cc2)cc1 [Example 3-86]	16	–
0.19	156 to 158	CCCC(CCC)c1ccc(OCc2ccc(-c3csc(N(C)Cc4ccc(C(=O)O)cc4)n3)cc2)cc1 [Example 1-39]	32	–
0.18	166 to 167	CC(C)CCN(CC(=O)O)Cc1nc(-c2ccc(N(C)Cc3ccc([C@H]4CC[C@H](C)CC4)cc3)cc2)cs1 [Example 3-92]	26	–
0.23	165 to 171	CCCC(CCC)c1ccc(OCc2ccc(-c3csc(COc4cncc(C(=O)O)c4)n3)cc2)cc1 [Example 1-48]	46	–
0.15	193 to 196	CN(Cc1ccc(C2CCCCC2)cc1)c1ccc(-c2csc(CN(C)S(=O)(=O)c3ccc(C(=O)O)cc3)n2)cc1 [Example 3-100]	–	20
0.16	–	CN(Cc1ccc([C@H]2CC[C@H](C)CC2)cc1)c1ccc(-c2csc(COC(=O)N(CC(=O)O)Cc3ccccc3)n2)cc1 [Example 3-108]	29	–
0.066	117 to 126	CCCC(CCC)c1ccc(OCc2ccc(-c3csc(CN4Cc5ccccc5CC4C(=O)O)n3)cc2)cc1 (centres unmarked) [Example 1-45]	32	–
0.13	138	CCCC(CCC)c1ccc(N(C)Cc2ccc(-c3csc(CN(CC(=O)O)Cc4ccccc4)n3)cc2)cc1 [Example 1-25]	25	–
0.14	149 to 152	CCCC(CCC)c1ccc(COc2ccc(C)cc2-c2csc(CN3Cc4ccccc4CC3C(=O)O)n2)cc1 (centres unmarked) [Example 3-25]	20	–
0.2	176 to 179	CCCC(CCC)c1ccc(CN(C)c2ccc(-c3csc(CN4Cc5ccccc5CC4C(=O)O)n3)cc2)cc1 (centres unmarked) [Example 3-73]	14	–
0.28	–	CCC(CC)c1ccc(N(Cc2ccc(-c3csc(COc4cncc(C(=O)O)c4)n3)cc2)C(C)C)cc1 [Example 1-1, 5-{4-[4-({[4-(1-Ethylpropyl)phenyl]isopropylamino}methyl)-phenyl]thiazol-2-ylmethoxy}nicotinic acid]	45	–
0.18	–	CCC(CC)c1ccc(N(Cc2ccc(-c3csc(CN(CC(=O)O)CC(=O)Nc4ccc(C(C)C)cc4)n3)cc2)C(C)C)cc1 [Example 1-78]	–	24
0.28	117 to 120	CCCC(CCC)c1ccc(CN(C)c2ccc(-c3csc(CN(CC(=O)O)Cc4ccccn4)n3)cc2)cc1 [Example 3-53]	20	–
0.41	148 to 150	CN(Cc1ccc(C2CCCCC2)cc1)c1ccc(-c2csc(CN(CC(=O)O)Cc3ccccc3)n2)cc1 [Example 3-29]	–	41
0.16	218 to 221	CN(Cc1ccc(C2CCC(C)(C)CC2)cc1)c1ccc(-c2csc(CN(C)S(=O)(=O)c3ccc(C(=O)O)cc3)n2)cc1 [Example 3-98]	–	31
0.14	209 to 211	CN(Cc1ccc(C(=O)O)cc1)c1nc(-c2ccc(COc3ccc(C4CCCCC4)cc3)cc2)cs1 [Example 1-37]	–	26

IC50 [1] [µM]	melting point [°C]	SMILES	blood glucose decreasing rate (%) 3 hours later ([2]; dose 1 mg/kg oral) [%]	blood glucose decreasing rate (%) 3 hours later ([2]; dose 3 mg/kg oral) [%]
0.21	186 to 187	CCCC(CCC)c1ccc(CN(C)c2ccc(-c3csc([C@@H]4Cc5ccccc5CN4CC(=O)[O-])n3)cc2)cc1.[Na+] [Example 3-64]	13	–
0.13	–	CCCC(CCC)c1ccc(N(C)Cc2ccc(-c3csc(CN(C)S(=O)(=O)c4ccc(C(=O)O)cc4)n3)cc2)cc1 [Example 1-15]	35	–
0.54	–	CN(Cc1ccc([C@H]2CC[C@H](C)CC2)cc1)c1ccc(-c2csc(CN(CC(=O)O)Cc3ccccn3)n2)cc1 [Example 3-52]	28	–
0.27	138 to 140	CCC(CC)c1ccc(COc2ccc(-c3csc(CN(CC(=O)O)Cc4ccc(C(C)C)cc4)n3)cc2)cc1 [Example 3-15]	25	–
0.22	138 to 142	CCCC(CCC)c1ccc(OCc2ccc(-c3csc(CN(CC(=O)O)Cc4ccccc4)n3)cc2)cc1 [Example 1-44]	20	–
0.1	110 to 113	CCCC(CCC)c1ccc(N(C)Cc2ccc(-c3csc(N(C)Cc4ccc(C(=O)O)cc4)n3)cc2)cc1 [Example 1-19]	35	–
0.18	157 to 159	CN(Cc1ccc([C@H]2CC[C@H](C)CC2)cc1)c1ccc(-c2csc(CN(CC(=O)O)Cc3ccccc3)n2)cc1 [Example 3-32]	14	–
0.1	–	CCCC(CCC)c1ccc(CN(C)c2ccc(-c3csc(CN(CC(=O)O)Cc4ccccc4)n3)cc2)cc1 [Example 3-36]	–	52
0.17	126 to 128	CCCC(CCC)c1ccc(COc2ccc(C)cc2-c2csc(CN(CC(=O)O)Cc3ccccc3)n2)cc1 [Example 3-9]	18	–
0.45	118 to 120	CCCC(CCC)c1ccc(COc2ccc(C)cc2-c2csc(CN(CC(=O)O)Cc3ccccn3)n2)cc1 [Example 3-21]	27	–
0.39	124 to 126	CC(C)Cc1ccc(CN(C)c2ccc(-c3csc(CN(CC(=O)O)C(=O)Cc4ccc(C(C)C)cc4)n3)cc2)cc1 [Example 3-58]	23	–
< 0.1	234 to 241.8	C[C@H]1CC[C@H](c2ccc(COc3ccc(-c4ccc(CN(CC5CCCCC5)S(=O)(=O)c5ccc(C(=O)O)cc5)s4)cc3)cc2)CC1 [Example 4-79]	–	–
0.45	227.3 to 233.6	Cl.O=C(O)C1(c2ccccc2)CCN(Cc2ccc(-c3cn(Cc4ccc(C5CCCCC5)cc4)c4ccccc34)s2)CC1 [Example 4-62]	–	–
0.17	167.5 to 169.9	CCCC(CCC)c1ccc(OCc2ccc(-c3csc(CN(CC(=O)O)Cc4ccc(-n5ccnc5)cc4)c3)cc2)cc1 [Example 4-91]	–	–
0.16	180 to 182	CN(C[C@H]1CC[C@H](c2ccc(Cl)cc2)CC1)c1ccc(-c2csc(CN(CC(=O)O)Cc3ccccc3)n2)cc1 [Example 3-34]	–	–

SMILES	IC50 [1] [µM]	melting point [°C]	blood glucose decreasing rate (%) 3 hours later ([2]; dose 1 mg/kg oral) [%]	blood glucose decreasing rate (%) 3 hours later ([2]; dose 3 mg/kg oral) [%]
CN(Cc1ccc(C2CCCCC2)cc1)c1ccc(-c2csc(CN3CCC(C(=O)O)(c4ccccc4)CC3)n2)cc1 [Example 3-67]	0.23	220 to 222	–	20
